Experimental findings from US8361998B2, “Compounds and their use as IKACh blockers” (AstraZeneca AB, priority 2010, dated 2013) are described below.

Structures can show the parent of a compound that is named as a salt. Where two headings read alike, the source gives them in different places.

A word on the IC50: it is the point on the concentration scale where inhibition reaches its midpoint.

For the test, the target named is T1, human cardiac ion channel proteins hKir3.1/Kir3.4 (Homo sapiens, UniProt P48544+P48549).
T1 construct: expressed in transfected cells
T1 sequence (P48549 1-501): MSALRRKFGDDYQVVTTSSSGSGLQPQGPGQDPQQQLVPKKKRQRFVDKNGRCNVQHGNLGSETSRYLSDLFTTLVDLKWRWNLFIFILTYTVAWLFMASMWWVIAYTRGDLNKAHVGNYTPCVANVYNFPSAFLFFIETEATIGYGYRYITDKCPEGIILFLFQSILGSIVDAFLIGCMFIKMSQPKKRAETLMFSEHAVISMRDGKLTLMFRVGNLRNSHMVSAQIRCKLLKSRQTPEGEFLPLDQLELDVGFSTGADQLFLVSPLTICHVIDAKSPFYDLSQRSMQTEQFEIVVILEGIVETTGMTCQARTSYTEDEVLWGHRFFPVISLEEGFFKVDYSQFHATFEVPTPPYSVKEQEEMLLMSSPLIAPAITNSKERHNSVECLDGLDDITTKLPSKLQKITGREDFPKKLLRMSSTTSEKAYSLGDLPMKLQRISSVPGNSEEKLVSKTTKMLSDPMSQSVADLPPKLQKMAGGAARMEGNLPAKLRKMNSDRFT
T1 sequence (P48544 1-419): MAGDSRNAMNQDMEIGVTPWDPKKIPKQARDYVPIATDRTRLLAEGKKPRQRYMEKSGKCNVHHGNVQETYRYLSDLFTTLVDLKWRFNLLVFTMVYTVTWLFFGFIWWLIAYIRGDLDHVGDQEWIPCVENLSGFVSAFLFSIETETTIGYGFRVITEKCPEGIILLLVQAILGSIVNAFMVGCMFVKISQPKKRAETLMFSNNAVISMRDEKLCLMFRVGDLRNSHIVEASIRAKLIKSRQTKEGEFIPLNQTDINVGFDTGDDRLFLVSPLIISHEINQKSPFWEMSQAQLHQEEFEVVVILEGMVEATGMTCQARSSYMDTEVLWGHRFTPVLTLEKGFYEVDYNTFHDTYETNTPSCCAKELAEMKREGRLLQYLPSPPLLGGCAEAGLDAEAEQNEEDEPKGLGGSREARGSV
Kind of test: Atomic Absorption Screening (AAS) Rb efflux assay of hKir3.1/Kir3.4 block, carbachol/high K+ stimulated, 10-pt or 7-pt CR. The format is cell-based. As to conditions: AAS Rb efflux, CHO-K1 cells expressing hKir3.1/Kir3.4. In a few lines: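 Mean IC50s derive from >4 replicates over 0.003–67 μmol/L (10-point) or >3 replicates over 0.037–27 μmol/L (7-point), both threefold steps. Rb-loaded (3 h, 37° C) CHO-K1 cells stably expressing hKir3.1/Kir3.4 saw compound for 5 min at RT before 10-min channel opening by carbachol 10 μM/KCl 20 mM final. Released Rb was quantified by atomic absorption.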

The mark [1] stands for this setting: 10-pt CR (0.003 to 67 μmol/L), mean of >4 replicates, read-out: IKACh IC50 10-pt CR, AAS.
Setting [2] is: 7-pt CR (0.037 to 27 μmol/L), mean of >3 replicates, read-out: IKACh IC50 7-pt CR, AAS.

For the compound `CCC[C@@H](CN1CCC1)N(C)C(=O)c1ccc(Cl)cc1` [Example 1.2, (S)-N-(1-(Azetidin-1-yl)pentan-2-yl)-4-chloro-N-methylbenzamide], the IC50 under setting [1] worked out at 3600 nM.

As to `CCC[C@@H](CN1CCC1)N(C)C(=O)c1ccc(F)c(C)c1` [Example 1.4, (S)-N-(1-(Azetidin-1-yl)pentan-2-yl)-4-fluoro-N,3-dimethyl-benzamide], the IC50 under setting [1] was determined as 3700 nM. For the compound `CC(C)[C@@H](CN1CCCC1)N(C)C(=O)c1ccc(F)cc1Cl` [Example 1.17, (S)-2-Chloro-4-fluoro-N-methyl-N-(3-methyl-1-(pyrrolidin-1-yl)butan-2-yl)benzamide], the IC50 is, setting by setting: under setting [2], 2800 nM; under setting [1], 4200 nM. Take `Cc1cc(C(=O)N(C)[C@H](CN2CCC2)C2CC2)ccc1F` [Example 4.1, (S)—N-(2-(Azetidin-1-yl)-1-cyclopropylethyl)-4-fluoro-N,3-dimethylbenzamide]: the IC50 under setting [1] was determined as 5900 nM. `CN(C(=O)c1ccc(Br)cc1)[C@H](CN1CC(O)C1)C1CC1` [Example 4.4, (S)-4-Bromo-N-(1-cyclopropyl-2-(3-hydroxyazetidin-1-yl)ethyl)-N-methylbenzamide]: under setting [1], the IC50 was 590 nM. On to `CC(C)[C@@H](CN1CCC1)N(C)C(=O)c1ccc(Cl)cc1` [Example 5.1, (S)-N-(1-(Azetidin-1-yl)-3-methylbutan-2-yl)-4-chloro-N-methylbenzamide], for which the IC50 under setting [1] is 6000 nM. In the case of `CC(C)[C@@H](CN1CCC1)N(C)C(=O)c1ccc(Br)cc1.O=C(O)CCC(=O)O` [Example 5.2], the IC50 under setting [1] came out at 1800 nM. On the same count and under the same terms, the figure for `Cc1cc(C(=O)N(C)[C@H](CN2CC(O)C2)C(C)C)ccc1F` [Example 6.1, (S)-4-Fluoro-N-(1-(3-hydroxyazetidin-1-yl)-3-methylbutan-2-yl)-N,3-dimethylbenzamide] is 1500 nM; for `CC(C)[C@@H](CN1CC(O)C1)N(C)C(=O)c1ccc(Cl)cc1` [Example 6.2, (S)-4-Chloro-N-(1-(3-hydroxyazetidin-1-yl)-3-methylbutan-2-yl)-N-methylbenzamide] it is 2600 nM. Same read-out and setting: the result for `Cc1cc(C(=O)N(C)[C@H](CN2CC(O)C2)C2CC2)ccc1F` [Example 7.1, (S)—N-(1-Cyclopropyl-2-(3-hydroxyazetidin-1-yl)ethyl)-4-fluoro-N,3-dimethylbenzamide] reads 1300 nM; that for `CN(C(=O)c1ccc(Cl)cc1)[C@H](CN1CC(O)C1)C1CC1` [Example 7.2, (S)-4-Chloro-N-(1-cyclopropyl-2-(3-hydroxyazetidin-1-yl)ethyl)-N-methylbenzamide], 1800 nM; that for `CN(C(=O)c1ccc(F)c(Cl)c1)[C@H](CN1CC(O)C1)C1CC1` [Example 7.3, (S)-3-Chloro-N-(1-cyclopropyl-2-(3-hydroxyazetidin-1-yl)ethyl)-4-fluoro-N-methylbenzamide], 1900 nM. On the same count and under the same terms, the figure for `CCC[C@@H](CN1CC(O)C1)N(C)C(=O)c1ccc(F)c(F)c1` [Example 8.1, (S)-3,4-Difluoro-N-(1-(3-hydroxyazetidin-1-yl)pentan-2-yl)-N-methylbenzamide] is 1700 nM; for `CCC[C@@H](CN1CC(O)C1)N(C)C(=O)c1ccc(Cl)cc1` [Example 8.2, (S)-4-Chloro-N-(1-(3-hydroxyazetidin-1-yl)pentan-2-yl)-N-methyl-benzamide, hydrochloride] it is 880 nM. In the case of `CCC[C@@H](CN1CC(O)C1)N(C)C(=O)c1ccc(F)cc1` [Example 8.6, (S)-4-Fluoro-N-(1-(3-hydroxyazetidin-1-yl)pentan-2-yl)-N-methylbenzamide], under setting [1], the IC50 was found to be 8500 nM. As for `CC(C)[C@@H](CN1CC[C@H](O)C1)N(C)C(=O)c1ccc(Cl)cc1` [Example 10.2, 4-Chloro-N-((S)-1-((S)-3-hydroxypyrrolidin-1-yl)-3-methylbutan-2-yl)-N-methylbenzamide hemi tartrate], the concentration for half-maximal inhibition (IC50) turned out to be 2000 nM under setting [2] and 5100 nM under setting [1]. With `Cc1cc(C(=O)N(C)[C@H](CN2CCCC2)C(C)C)ccc1F` [Example 12.1, (S)-4-Fluoro-N,3-dimethyl-N-(3-methyl-1-(pyrrolidin-1-yl)butan-2-yl)benzamide-dihydroxysuccinate], the IC50 by setting is: under setting [2], 1400 nM; under setting [1], 15000 nM.

Turning to `Cc1cccc(C(=O)N(C)[C@H](CN2CCCC2)C(C)C)c1` [Example 12.2, (S)-1-(2-(N,3-Dimethylbenzamido)-3-methylbutyl)pyrrolidinium 2,3-dihydroxysuccinate], the IC50 is, setting by setting: under setting [2], 5800 nM; under setting [1], 16000 nM.

With `CC(C)[C@@H](CN1CCCC1)N(C)C(=O)c1ccc(F)c(Cl)c1` [Example 16.55, (S)-3-Chloro-4-fluoro-N-methyl-N-(3-methyl-1-(pyrrolidin-1-yl)butan-2-yl)benzamide], the IC50 under setting [2] was determined as 1400 nM and the IC50 under setting [1] amounted to 1900 nM. The like results for `CC(C)[C@@H](CN1CCCC1)N(C)C(=O)c1ccc(Cl)cc1` [Example 18, (S)-1-(2-(4-Chloro-N-methylbenzamido)-3-methylbutyl)pyrrolidinium chloride] were, in that order, 1200 nM and 6800 nM.

Regarding `CC(C)[C@@H](CN1CCCC1)N(C)C(=O)c1ccc(Br)cc1` [Example 19, (S)-1-(2-(4-bromo-N-methylbenzamido)-3-methylbutyl)pyrrolidinium 3-carboxy-2,3-dihydroxypropanoate], the IC50 was 820 nM under setting [2] and 4600 nM under setting [1]. For the compound `CC[C@H](C)[C@@H](CN1CC(O)C1)N(C)C(=O)c1ccc(C#N)cc1F` [Example 29.7, 4-Cyano-2-fluoro-N-((2S,3S)-1-(3-hydroxyazetidin-1-yl)-3-methylpentan-2-yl)-N-methylbenzamide], the IC50 under setting [1] came out at 3500 nM. In the case of `CCCC[C@@H](CN1CC(O)C1)N(C)C(=O)c1ccc(C#N)cc1` [Example 33.4, 4-Cyano-N-[(2S)-1-(3-hydroxyazetidin-1-yl)hexan-2-yl]-N-methylbenzamide], the IC50 under setting [1] was 1100 nM. Turning to `CCCC[C@@H](CN1CC(O)C1)N(C)C(=O)c1ccc(F)cc1` [Example 33.7, 4-Fluoro-N-[(2S)-1-(3-hydroxyazetidin-1-yl)hexan-2-yl]-N-methylbenzamide], under setting [1], the half-inhibitory concentration (IC50) worked out at 550 nM.

As to `CC(C)C[C@@H](CN1CC(O)C1)N(C)C(=O)c1ccc(F)c(F)c1` [Example 38.1, 3,4-Difluoro-N-[(2S)-1-(3-hydroxyazetidin-1-yl)-4-methylpentan-2-yl]-N-methylbenzamide], the IC50 under setting [1] is 1300 nM. On the same count and under the same terms, the result for `CC(C)C[C@@H](CN1CC(O)C1)N(C)C(=O)c1ccc(Cl)cc1` [Example 38.2, 4-Chloro-N-[(2S)-1-(3-hydroxyazetidin-1-yl)-4-methylpentan-2-yl]-N-methylbenzamide] reads 110 nM. For the compound `CC(C)C[C@@H](CN1CC(O)C1)N(C)C(=O)c1ccc(C#N)cc1F` [Example 38.6, 4-Cyano-2-fluoro-N-[(2S)-1-(3-hydroxyazetidin-1-yl)-4-methylpentan-2-yl]-N-methylbenzamide], the IC50 under setting [1] came out at 3400 nM. Same read-out and setting: the result for `CN(C(=O)c1ccc(C#N)cc1)[C@H](CN1CC(O)C1)C1CCC1` [Example 39.2, (S)-4-Cyano-N-(1-cyclobutyl-2-(3-hydroxyazetidin-1-yl)ethyl)-N-methylbenzamide] reads 490 nM. On the same count and under the same terms, the figure for `CC[C@@H](CN1CC(O)C1)N(C)C(=O)c1ccc(Cl)cc1` [Example 39.12, (S)-4-Chloro-N-(1-(3-hydroxyazetidin-1-yl)butan-2-yl)-N-methylbenzamide] is 3900 nM; for `CN(C(=O)c1ccc(Cl)cc1)[C@H](CN1CC(O)C1)C1CCC1` [Example 39.14, (S)-4-Chloro-N-(1-cyclobutyl-2-(3-hydroxyazetidin-1-yl)ethyl)-N-methylbenzamide] it is 72 nM; for `Cc1cc(C(=O)N(C)[C@H](CN2CC(O)C2)C2CCC2)ccc1F` [Example 39.16, (S)—N-(1-Cyclobutyl-2-(3-hydroxyazetidin-1-yl)ethyl)-4-fluoro-N,3-dimethylbenzamide] it is 78 nM.
